Read-outs that look alike come from different tables or passages of the source.
Molecular target: T1, LRRK2 (endogenous, HiBit tagged) (Homo sapiens, UniProt Q5S007)
T1 construct: endogenous in cells; host or cells: HEK293 cells with HiBit knock-in at the endogenous LRRK2 locus, stably expressing firefly luciferase
Test: Endogenous LRRK2 degradation assay, endogenous gene C-terminally HiBit-tagged in HEK293 cells (Nano-Glo Dual Luciferase)
Assay type: cell-based
Conditions: endogenous HiBit-tagged LRRK2 in HEK293 cells
From the text: Exemplary Assay for Testing LRRK2 Degradation Driven by Exemplary Hetero-Bifunctional Compounds Designed to Target LRRK2
The assay measures the degradation of LRRK2 in cells where the C-terminus (3′) of the endogenous gene has been tagged with a HiBit sequence in HEK293 cells. The cells also express firefly luciferase, expressed from a Cytomegalovirus promoter and introduced into the HiBit tagged cells and stably expressed. The Nano-Glo® Dual Luciferase Reporter Assay System (Promega™, Madison, WI) was utilized.
Day 1—Preparation of Compound and Assay Plates. Two sets of plates were prepared: a triplicate set for the HiBit assay in white 384-well plates and a triplicate set of plate in black 384-well plates for the Alamar Blue cell viability assay. Briefly, the growth media (DMEM+Glutamax-10% fetal bovine serum-1% Penicillin-Streptomicin) from two T128 flasks was aspirated from the flasks. Cells were washed with Dulbecco's Phosphate Buffered Saline (dPBS) and aspirated. Trypsin (3 mL per flask) was added and the flasks were incubated for 2-3 minutes.
Ten mL of OptiMEM-10% fetal bovine-1% penicillin-streptomycin (hereinafter, “OptiMEM media”) was added to the flask and the cells and transferred to a 50 mL conical tube. A cell count (25 ul of cell into Effendorf vial+25 ul of Trypan Blue Stain) was performed and the cell density adjusted to 15,000 cell/45 μl/well (3.33×10^5/mL) in OptiMEM media.
Fourty-five microliters of the cell suspension (15,000 cells) was aliquoted to each well of the white 384-well plate. The plates incubated at room temperature for 10 minutes before being placed in the 37° C.+5% CO2 incubator overnight
Day 2—Compound Treatment. Exemplary compounds were prepared at a 1 mM starting concentration and 1:3 serial dilution for 11 points CRC prepared and stored in the freezer. The Master Compound Plate was thawed overnight at room temperature. DMSO (20 μL) was added into column 24 of the Master Compound Plate for negative control and 20 μL of 300 μM of Compound 4 in column 23 as positive control.
Intermediate Compound Plate with 4% DMSO in OptiMEM Media. DMSO was added to warm OptiMEM media to achieve a 4% DMSO solution (approximately 50 mL/plate). One-hundred microliters of the OptiMEM-4% DMSO was aliquoted to each well of 384-Well Deep Well Microplates.
The Master Compound Plate and the Intermediate Compound Plate were spun down.
One microliter of compound from the Master Compound Plate was transferred into the Intermediate plate (a 1:100 dilution). The diluted mixture was mixed and 5 μL transferred into the assay plate (a 1:10 dilution) for the final starting concentration of 1 μM. The Treated Assay plates were incubated for 24 hours at 37° C.+5% CO2. The Master Compound Plate was sealed and store at room temperature for a second run that was performed within a week.
Day 3—HiBit Assay. Five microliters of Alamar Blue was added to each well of the black 384-well plates. The plates were incubated for 2 hours in the incubator (37° C.+5% CO2) and at room temperature for one hour. Fluorescence of each plate was read on a plated reader for the Alamar Blue viability assay.
One set of white assay plates was warmed to room temperature (45 minute).
The One Glo luciferase mixture was prepared. The media from white 384-well assay plates was aspirated. Twenty-five μL of the One Glo luciferase mixture was added to each well of the assay plates. The plates were incubated on the bench (room temperature) for 45 minutes, including 10 minutes of shaking at 700 rpm. The luminescence of each plate was read on a plate reader.
1:100 DLR substrate and 1:100 LgBiT Protein dilution were added to the Promega Stop and Glo buffer and mixed just before addition to assay plates. Twenty-five microliters of Stop and Glo mixture was added to each well. Assay plates incubated for at least 45 minutes, including 10 minutes of shaking at 700 rpm. The luminescence of each plate was read on a plate reader.
Analysis of LRRK2 HiBit Screening assays. […]

[1] = 24 hours treatment, read-out: **Endogenous WT Dmax (%)
[2] = 24 hours treatment, read-out: *Endogenous WT DC50
[3] = 24 hours treatment, read-out: Endogenous WT DC50
[4] = 24 hours treatment, read-out: Endogenous WT Dmax

T1 sequence (Q5S007 whole entry): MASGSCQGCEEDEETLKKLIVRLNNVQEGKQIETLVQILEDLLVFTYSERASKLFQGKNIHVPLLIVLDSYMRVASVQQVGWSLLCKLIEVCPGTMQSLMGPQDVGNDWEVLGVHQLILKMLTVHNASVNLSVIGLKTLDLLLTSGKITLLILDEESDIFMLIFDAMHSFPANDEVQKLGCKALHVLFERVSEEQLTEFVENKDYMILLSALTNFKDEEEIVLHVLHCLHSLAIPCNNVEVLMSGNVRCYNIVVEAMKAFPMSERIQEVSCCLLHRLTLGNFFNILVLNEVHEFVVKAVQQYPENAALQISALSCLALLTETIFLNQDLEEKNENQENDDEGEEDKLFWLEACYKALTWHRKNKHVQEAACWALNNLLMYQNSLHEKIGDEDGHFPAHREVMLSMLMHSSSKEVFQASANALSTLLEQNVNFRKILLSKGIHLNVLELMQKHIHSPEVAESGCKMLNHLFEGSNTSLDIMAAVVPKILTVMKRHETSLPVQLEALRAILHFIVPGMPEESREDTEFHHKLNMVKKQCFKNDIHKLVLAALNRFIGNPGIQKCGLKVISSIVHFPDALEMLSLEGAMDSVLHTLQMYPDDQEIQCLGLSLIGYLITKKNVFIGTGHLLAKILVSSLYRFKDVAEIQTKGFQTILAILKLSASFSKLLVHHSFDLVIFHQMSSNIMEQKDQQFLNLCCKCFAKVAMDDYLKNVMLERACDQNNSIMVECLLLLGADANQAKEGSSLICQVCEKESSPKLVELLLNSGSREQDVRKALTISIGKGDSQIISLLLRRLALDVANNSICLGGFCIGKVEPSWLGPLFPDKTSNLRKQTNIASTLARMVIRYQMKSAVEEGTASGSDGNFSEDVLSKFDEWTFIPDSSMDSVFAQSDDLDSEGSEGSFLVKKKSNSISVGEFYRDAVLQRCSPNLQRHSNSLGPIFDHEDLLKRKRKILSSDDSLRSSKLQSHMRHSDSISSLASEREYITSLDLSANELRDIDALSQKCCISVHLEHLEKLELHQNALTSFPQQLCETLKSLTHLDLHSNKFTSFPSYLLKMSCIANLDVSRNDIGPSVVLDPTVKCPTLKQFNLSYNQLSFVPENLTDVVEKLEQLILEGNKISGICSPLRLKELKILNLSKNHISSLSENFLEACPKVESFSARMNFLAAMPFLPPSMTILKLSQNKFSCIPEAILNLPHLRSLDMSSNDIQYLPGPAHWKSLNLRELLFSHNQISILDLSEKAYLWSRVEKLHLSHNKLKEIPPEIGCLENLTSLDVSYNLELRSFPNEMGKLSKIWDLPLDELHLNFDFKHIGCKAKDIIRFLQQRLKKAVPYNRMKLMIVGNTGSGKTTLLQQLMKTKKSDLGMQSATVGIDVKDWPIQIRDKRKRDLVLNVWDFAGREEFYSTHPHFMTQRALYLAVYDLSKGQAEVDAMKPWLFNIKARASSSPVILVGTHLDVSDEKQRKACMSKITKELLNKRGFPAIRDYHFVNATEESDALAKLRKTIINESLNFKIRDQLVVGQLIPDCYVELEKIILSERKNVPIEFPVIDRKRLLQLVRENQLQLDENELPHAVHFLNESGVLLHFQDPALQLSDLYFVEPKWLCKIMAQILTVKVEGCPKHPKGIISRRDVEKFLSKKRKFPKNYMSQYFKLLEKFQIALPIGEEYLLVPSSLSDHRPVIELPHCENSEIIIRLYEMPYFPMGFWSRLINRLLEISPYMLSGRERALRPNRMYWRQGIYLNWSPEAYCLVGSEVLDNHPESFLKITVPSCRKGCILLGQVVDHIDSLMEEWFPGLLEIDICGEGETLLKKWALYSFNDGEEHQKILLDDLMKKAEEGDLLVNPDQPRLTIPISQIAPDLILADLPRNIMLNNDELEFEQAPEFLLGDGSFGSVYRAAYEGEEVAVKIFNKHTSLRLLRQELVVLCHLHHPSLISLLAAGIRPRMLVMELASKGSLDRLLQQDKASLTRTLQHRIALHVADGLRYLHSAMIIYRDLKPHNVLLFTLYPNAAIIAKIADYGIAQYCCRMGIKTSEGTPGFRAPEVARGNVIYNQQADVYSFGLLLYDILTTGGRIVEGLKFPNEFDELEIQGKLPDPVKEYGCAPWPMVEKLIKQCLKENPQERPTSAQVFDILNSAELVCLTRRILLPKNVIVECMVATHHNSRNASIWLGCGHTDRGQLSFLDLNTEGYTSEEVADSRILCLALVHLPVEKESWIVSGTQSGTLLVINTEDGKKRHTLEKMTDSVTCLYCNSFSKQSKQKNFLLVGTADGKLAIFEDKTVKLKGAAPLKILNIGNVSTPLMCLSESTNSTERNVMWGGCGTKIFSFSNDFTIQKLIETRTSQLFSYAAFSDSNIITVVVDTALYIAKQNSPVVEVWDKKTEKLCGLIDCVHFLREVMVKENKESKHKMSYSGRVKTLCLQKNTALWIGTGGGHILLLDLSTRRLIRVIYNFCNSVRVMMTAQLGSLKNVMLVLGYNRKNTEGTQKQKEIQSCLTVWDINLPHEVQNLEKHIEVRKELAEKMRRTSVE

What does the source list for CC1(Oc2ccc3n[nH]c(-c4cc(N5CCC(O[C@H]6C[C@H](N7CC8(CCN(c9ccc%10c(c9F)CN(C9CCC(=O)NC9=O)C%10=O)CC8)C7)C6)CC5)ncn4)c3c2)CC1 (some centres unmarked) [Compound 335, 3-(4-fluoro-1-oxo-5-{2-[(1r,3r)-3-[(1-{6-[5-(1-methylcyclopropoxy)-2H-indazol-3-yl]pyrimidin-4-yl}piperidin-4-yl)oxy]cyclobutyl]-2,7-diazaspiro[3.5]nonan-7-yl}-2,3-dihydro-1H-isoindol-2-yl)piperidine-2,6-dione]?
Dmax [1]: 50 to 70%; DC50 [2]: < 0.01 µM

What does the source list for COc1c(N2CCC(CN3CCN(CC4CCN(c5cc(-c6n[nH]c7ccc(OC8(C)CC8)cc67)ncn5)CC4)C(C)(C)C3)CC2)ccc2c1CN(C1CCC(=O)NC1=O)C2=O (centres unmarked) [Compound 251, 3-{5-[4-({3,3-dimethyl-4-[(1-{6-[5-(1-methylcyclopropoxy)-1H-indazol-3-yl]pyrimidin-4-yl}piperidin-4-yl)methyl]piperazin-1-yl}methyl)piperidin-1-yl]-4-methoxy-1-oxo-2,3-dihydro-1H-isoindol-2-yl}piperidine-2,6-dione]?
DC50 [3]: < 0.01 µM; Dmax [4]: 50 to 70%

What does the source list for CC1(Oc2ccc3[nH]nc(-c4cc(N5CCN(C[C@H]6CC[C@H](OC7CCN(c8ccc9c(c8F)CN(C8CCC(=O)NC8=O)C9=O)CC7)CC6)CC5(C)C)ncn4)c3c2)CC1 (some centres unmarked) [Compound 383, 3-(5-(4-(((1r,4r)-4-((3,3-dimethyl-4-(6-(5-(1-methylcyclopropoxy)-1H-indazol-3-yl)pyrimidin-4-yl)piperazin-1-yl)methyl)cyclohexyl)oxy)piperidin-1-yl)-4-fluoro-1-oxoisoindolin-2-yl)piperidine-2,6-dione]?
DC50 [3]: 0.05 to 0.1 µM; Dmax [4]: < 50%

COc1c(N2CC3(CCN(CC4CCN(c5cc(-c6n[nH]c7ccc(OC8(C)CC8)cc67)ncn5)CC4)CC3(F)F)C2)ccc2c1CN(C1CCC(=O)NC1=O)C2=O (centres unmarked) [Compound 332, 3-(5-{5,5-difluoro-7-[(1-{6-[5-(1-methylcyclopropoxy)-1H-indazol-3-yl]pyrimidin-4-yl}piperidin-4-yl)methyl]-2,7-diazaspiro[3.5]nonan-2-yl}-4-methoxy-1-oxo-2,3-dihydro-1H-isoindol-2-yl)piperidine-2,6-dione] was tested. Which Dmax [1] did it give?
The Dmax was 50 to 70%.

And the DC50 [2]?
Its DC50 is less than 0.01 µM.

Which Dmax [1] does the source give for COc1c(N2CCC(N3CC(OC4CCN(c5cc(-c6[nH]nc7ccc(OC8(C)CC8)cc67)ncn5)CC4)C3)CC2)ccc2c1CN(C1CCC(=O)NC1=O)C2=O (centres unmarked) [Compound 356, 3-[4-methoxy-5-(4-{3-[(1-{6-[5-(1-methylcyclopropoxy)-2H-indazol-3-yl]pyrimidin-4-yl}piperidin-4-yl)oxy]azetidin-1-yl}piperidin-1-yl)-1-oxo-2,3-dihydro-1H-isoindol-2-yl]piperidine-2,6-dione] here?
Its Dmax is 50 to 70%.

And the DC50 [2]?
Its DC50 is less than 0.01 µM.

COc1c(N2CCC(CN3CCN(CC4CCN(c5cc(-c6n[nH]c7ccc(OC8(C)CC8)cc67)ncn5)CC4)C[C@H]3C)CC2)ccc2c1CN(C1CCC(=O)NC1=O)C2=O (stereo partly drawn) [Compound 285, 3-[4-methoxy-5-(4-{[(2R)-2-methyl-4-[(1-{6-[5-(1-methylcyclopropoxy)-1H-indazol-3-yl]pyrimidin-4-yl}piperidin-4-yl)methyl]piperazin-1-yl]methyl}piperidin-1-yl)-1-oxo-2,3-dihydro-1H-isoindol-2-yl]piperidine-2,6-dione] was tested. Which Dmax [1] did it give?
The Dmax was no less than 70%.

And the DC50 [2]?
Its DC50 is less than 0.01 µM.

For CC1(Oc2ccc3[nH]nc(-c4cc(C5CCN(CC6CCN(CC7CCN(c8ccc9c(c8)C(=O)N(C8CCC(=O)NC8=O)C9=O)CC7)CC6)CC5)ncn4)c3c2)CC1 (centres unmarked) [Compound 105, 2-(2,6-dioxo-3-piperidyl)-5-[4-[[4-[[4-[6-[5-(1-methylcyclopropoxy)-1H-indazol-3-yl]pyrimidin-4-yl]-1-piperidyl]methyl]-1-piperidyl]methyl]-1-piperidyl]isoindoline-1,3-dione], which Dmax (24 hours, read-out: **Endogenous WT Dmax (%)) is on record?
Its Dmax is 50 to 70%.

What about the DC50 (24 hours, read-out: *Endogenous WT DC50) of the same compound?
Its DC50 is no less than 0.1 µM.

How did the DC50 [3] turn out when COc1c(N2CCC(O[C@H]3CC[C@H](CN4CCN(c5cc(-c6n[nH]c7cc(F)c(OC8(C)CC8)cc67)ncn5)CC4)CC3)CC2)ccc2c1CN(C1CCC(=O)NC1=O)C2=O (some centres unmarked) [Compound 360, 3-[4-methoxy-1-oxo-5-(4-{[(1r,4r)-4-[(4-{6-[6-fluoro-5-(1-methylcyclopropoxy)-1H-indazol-3-yl]pyrimidin-4-yl}piperazin-1-yl)methyl]cyclohexyl]oxy}piperidin-1-yl)-2,3-dihydro-1H-isoindol-2-yl]piperidine-2,6-dione] was run?
Its DC50 is less than 0.01 µM.

What about the Dmax [4] of the same compound?
Its Dmax is 50 to 70%.

Which results are given for CC1(Oc2ccc3[nH]nc(-c4cc(N5CC[C@H](CN6CCN(CC7CCN(c8ccc9c(c8F)CN(C8CCC(=O)NC8=O)C9=O)CC7)CC6)C5)ncn4)c3c2)CC1 (stereo partly drawn) [Compound 295, 3-(4-fluoro-5-{4-[(4-{[(3R)-1-{6-[5-(1-methylcyclopropoxy)-1H-indazol-3-yl]pyrimidin-4-yl}pyrrolidin-3-yl]methyl}piperazin-1-yl)methyl]piperidin-1-yl}-1-oxo-2,3-dihydro-1H-isoindol-2-yl)piperidine-2,6-dione]?
Dmax [1]: 50 to 70%; DC50 [2]: < 0.01 µM

What does the source list for CC1(Oc2ccc3n[nH]c(-c4cc(N5CCC(CN6CC(F)(CN7CCN(c8ccc9c(c8F)CN(C8CCC(=O)NC8=O)C9=O)CC7)C6)CC5)ncn4)c3c2)CC1 (centres unmarked) [Compound 301, 3-{4-fluoro-5-[4-({3-fluoro-1-[(1-{6-[5-(1-methylcyclopropoxy)-2H-indazol-3-yl]pyrimidin-4-yl}piperidin-4-yl)methyl]azetidin-3-yl}methyl)piperazin-1-yl]-1-oxo-2,3-dihydro-1H-isoindol-2-yl}piperidine-2,6-dione]?
Dmax [1]: ≥ 70%; DC50 [2]: < 0.01 µM

Which DC50 [3] does the source give for CC1(Oc2ccc3[nH]nc(-c4cc(N5CCC(CN6CCN(CC7CCN(c8ccc9c(c8F)CN(C8CCC(=O)NC8=O)C9=O)CC7)C(C)(C)C6)CC5)ncn4)c3c2)CC1 (centres unmarked) [Compound 236, 3-[5-[4-[[2,2-dimethyl-4-[[1-[6-[5-(1-methylcyclopropoxy)-1H-indazol-3-yl]pyrimidin-4-yl]-4-piperidyl]methyl]piperazin-1-yl]methyl]-1-piperidyl]-4-fluoro-1-oxo-isoindolin-2-yl]piperidine-2,6-dione] here?
Its DC50 is less than 0.01 µM.

And the Dmax [4]?
The Dmax was 50 to 70%.

What does the source list for COc1c(N2CC3(CCN(CCN4CCN(c5cc(-c6n[nH]c7ccc(OC8(C)CC8)cc67)ncn5)CC4)CC3(F)F)C2)ccc2c1CN(C1CCC(=O)NC1=O)C2=O (centres unmarked) [Compound 363, 3-(5-{5,5-difluoro-7-[2-(4-{6-[5-(1-methylcyclopropoxy)-1H-indazol-3-yl]pyrimidin-4-yl}piperazin-1-yl)ethyl]-2,7-diazaspiro[3.5]nonan-2-yl}-4-methoxy-1-oxo-2,3-dihydro-1H-isoindol-2-yl)piperidine-2,6-dione]?
DC50 [3]: < 0.01 µM; Dmax [4]: 50 to 70%

Which Dmax [1] does the source give for CC1(Oc2cc3c(-c4cc(N5CCN(C[C@@H]6CCN(CC7CCN(c8ccc9c(c8F)CN(C8CCC(=O)NC8=O)C9=O)CC7)C[C@@H]6F)CC5)ncn4)n[nH]c3cc2F)CC1 (some centres unmarked) [Compound 299, 3-[4-fluoro-5-(4-{[(3r,4s)-3-fluoro-4-[(4-{6-[6-fluoro-5-(1-methylcyclopropoxy)-1H-indazol-3-yl]pyrimidin-4-yl}piperazin-1-yl)methyl]piperidin-1-yl]methyl}piperidin-1-yl)-1-oxo-2,3-dihydro-1H-isoindol-2-yl]piperidine-2,6-dione] here?
Its Dmax is 50 to 70%.

And the DC50 [2]?
Its DC50 is less than 0.01 µM.
